Test results published in ChEMBL document CHEMBL1201862, “PubChem BioAssay data set” (2004).
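Method: 48-hour compound exposure of cells in 96-well plates, five concentrations, linear interpolation of endpoints. GI50 is the concentration that inhibits growth by half.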 The source made the active and inactive calls. No stated cut-off is given here; in the data, active = GI50 up to about 1.1 µM and inactive = higher. Where a SMILES comes first, the peptide text is derived from it. [ ]: non-standard residue; d: D form. The star is where a group is joined. Phe(4-NO2) = N[CH](Cc1ccc([N+](=O)[O-])cc1)C(=O)O; Boc = CC(C)(C)OC(=O)*; OtBu = CC(C)(C)O*

Legend:
Test in all cases: inhibition of tumour cell growth, NCI panel, 48 h
[1] = system: K562
[2] = system: DU-145
[3] = system: T47D
[4] = system: RPMI-8226
[5] = system: 786-0
[6] = system: NCI-H23
[7] = system: HOP-92
[8] = system: SNB-19
[9] = system: HT-29
[10] = system: UACC-257
[11] = system: HCC 2998
[12] = system: Malme-3M
[13] = system: OVCAR-8
[14] = system: SK-MEL-28
[15] = system: MDA-MB-435
[16] = system: MDA-N
[17] = system: SK-MEL-2
[18] = system: OVCAR-5
[19] = system: U-251
[20] = system: NCI-H460

| SMILES | GI50 [1] | GI50 [2] | GI50 [3] | GI50 [4] | GI50 [5] | GI50 [6] | GI50 [7] | GI50 [8] | GI50 [9] | GI50 [10] | GI50 [11] | GI50 [12] | GI50 [13] | GI50 [14] | GI50 [15] | GI50 [16] | GI50 [17] | GI50 [18] | GI50 [19] | GI50 [20] |
| --- | --- | --- | --- | --- | --- | --- | --- | --- | --- | --- | --- | --- | --- | --- | --- | --- | --- | --- | --- | --- |
| COC(=O)/C=C1/OC(c2ccccc2)=C(Cl)C1=O | 6.07 µM (inactive) | 29 µM (inactive) | 19.1 µM (inactive) | 7.33 µM (inactive) | 18.3 µM (inactive) | 19.4 µM (inactive) | 20 µM (inactive) | 31.3 µM (inactive) | 22.3 µM (inactive) | 24.9 µM (inactive) | 20.2 µM (inactive) | 18.4 µM (inactive) | 21.3 µM (inactive) | 21.1 µM (inactive) | 19.3 µM (inactive) | 20.3 µM (inactive) | 21.3 µM (inactive) | 19 µM (inactive) | 14 µM (inactive) | 25 µM (inactive) |
| C#CCn1c(=O)c2ccccc2n(CC#C)c1=O | > 10 µM (inactive) | > 10 µM (inactive) | > 10 µM (inactive) | > 10 µM (inactive) | > 10 µM (inactive) | > 10 µM (inactive) | > 10 µM (inactive) | > 10 µM (inactive) | > 10 µM (inactive) | > 10 µM (inactive) | > 10 µM (inactive) | > 10 µM (inactive) | > 10 µM (inactive) | > 10 µM (inactive) | > 10 µM (inactive) | > 10 µM (inactive) | > 10 µM (inactive) | > 10 µM (inactive) | > 10 µM (inactive) | > 10 µM (inactive) |
| O=C(/C=C/c1cccs1)c1ccccc1Cl | 21.3 µM (inactive) | 12.4 µM (inactive) | 5.96 µM (inactive) | 16 µM (inactive) | 14.1 µM (inactive) | 8.81 µM (inactive) | 25.5 µM (inactive) | 15.6 µM (inactive) | 16.9 µM (inactive) | 17.8 µM (inactive) | 16.8 µM (inactive) | 12.2 µM (inactive) | 23.7 µM (inactive) | 16.3 µM (inactive) | 10.9 µM (inactive) | 15.6 µM (inactive) | 20.1 µM (inactive) | 14.6 µM (inactive) | 13.5 µM (inactive) | 15.8 µM (inactive) |
| COc1ccc2cc(CNCCOCCOCCNCc3ccc4cc(OC)ccc4c3)ccc2c1 | 0.118 µM (active) | 1.6 µM (inactive) | 1.06 µM (active) | 0.209 µM (active) | 0.953 µM (active) | 1.5 µM (inactive) | 0.593 µM (active) | 1.49 µM (inactive) | 0.192 µM (active) | 1.58 µM (inactive) | 0.104 µM (active) | 1.43 µM (inactive) | 1.49 µM (inactive) | 0.869 µM (active) | 0.494 µM (active) | 0.889 µM (active) | 1.53 µM (inactive) | 1.85 µM (inactive) | 1.31 µM (inactive) | 0.655 µM (active) |
| CC(=O)NC(CCC(=O)OC(C)(C)C)C(=O)NC(CCC(=O)OC(C)(C)C)C(=O)NC(Cc1ccc([N+](=O)[O-])cc1)C(=O)NC(CCCCNC(=O)OC(C)(C)C)C(=O)NC(CCCCNC(=O)OC(C)(C)C)C(=O)NCC(=O)O (stereo not given) (Ac-E(OtBu)E(OtBu)[Phe(4-NO2)]K(Boc)K(Boc)G-OH; configuration not given here) | > 100 µM (inactive) | > 100 µM (inactive) | > 100 µM (inactive) | > 100 µM (inactive) | > 100 µM (inactive) | > 100 µM (inactive) | > 100 µM (inactive) | > 100 µM (inactive) | > 100 µM (inactive) | > 100 µM (inactive) | > 100 µM (inactive) | > 100 µM (inactive) | > 100 µM (inactive) | > 100 µM (inactive) | > 100 µM (inactive) | > 100 µM (inactive) | 75.2 µM (inactive) | > 100 µM (inactive) | > 100 µM (inactive) | > 100 µM (inactive) |
